# In a melting point compilation (Tetko et al.; mined from patent text by program, amines drawn as free bases though some values may be those of a salt):
row,melting point,SMILES
1,238 °C,CNC(=O)NN=C(c1ccc([N+](=O)[O-])cc1)c1cc2c(cc1C[C@H](C)O)OCO2
2,188 to 190 °C,c1ccc2c(c1)CSc1nncn1-2
3,204 to 205 °C,CCOC(=O)N(C)N1CCc2ccccc2C(Oc2ccc(C(F)(F)F)cc2)C1 (stereo not drawn)
4,71 to 72 °C,Cc1cc(N)c(C(=O)OC(C)C)cc1Oc1ccc(OC(F)(F)F)cc1
5,205 to 210 °C,CCN1C(=O)C(C(=O)Nc2cccc(C(=O)Nc3ccc(I)cc3)c2)c2cc(C(C)=O)ccc21 (stereo not drawn)
6,86 to 88 °C,CON=C(C)C(C)=NOc1ncccc1N(OC)C(=O)OC
7,> 280 °C,Cc1ccc2nc(Cl)nc(NN)c2c1
8,144 to 148 °C,COc1ncncc1C1c2ccccc2OCOc2cc(F)ccc21 (stereo not drawn)
9,158 to 160 °C,c1ccc(-c2cn3c4c(sc3n2)CCCC4)cc1
10,149 to 152 °C,Cc1cncn1CC#Cc1cc(CN2CCOCC2)cc2c(=O)c(C(=O)NCc3ccc(Cl)cc3)cn(C)c12
11,127 to 129 °C,CC(=O)C1CCC2C3CCC4CC=CCC4(C)C3C(N)CC12C (stereo not drawn)
12,85 °C,COc1ccc([C@@H]2OC(=O)[C@H](Cc3ccccc3)N2C(=O)OCc2ccccc2)cc1
13,80 °C,CCOc1ccc(C2=NC[C@@H](OC(=O)Nc3ccccc3)[C@H](c3ccccc3)O2)cc1 (racemic)
14,180 to 183 °C,O=C(CS(=O)(=O)c1ccccc1)NNC(=O)N1Cc2ccccc2Oc2ccc(Cl)cc21
15,129 to 130 °C,COc1ccc(C(CCCCC(=O)NO)C2=C(C)C(=O)c3ccccc3C2=O)cc1 (stereo not drawn)
16,251 to 253 °C,O=C1Nc2cccc(-c3cccc(NC(=O)c4cccc(Br)c4)c3)c2/C1=C/c1ccc[nH]1
17,177 to 178 °C,COC1CCN(c2ccn3nc(-c4ccccc4)c(-c4ccc(=O)n(C(C)C)n4)c3c2)CC1
18,178 °C,O=C(NCc1ccc(C(F)(F)F)cc1)Nc1cccc2[nH]ccc12
19,122 to 124 °C,O=Cc1c2ccccc2cc2cc(Cl)ccc12

# Second part, the compound before the results:
row,SMILES,melting point
1,Cc1ccc(-c2ccc3c(c2)C=C(C(=O)N[C@H]2CC[C@H](CN(C)C4CCOCC4)CC2)CCO3)cc1,144 to 146 °C
2,Cc1cc(SC2=C(O)C[C@@](CCc3cccc(O)c3)(C3CCCC3)OC2=O)c(C(C)(C)C)cc1CO,128 to 132 °C
3,C=C1CCCCCCCSC[C@@H](C(=O)OCC)NC1=O,146 to 147 °C
4,CC(C)c1ccc(C2(OC(=O)N(C)C)C(=O)c3ccccc3C2=O)c(OC(=O)N(C)C)c1,203 to 205 °C
5,C=CCOP1(=S)OCc2cc(C)cnc2O1 (stereo not drawn),79 to 80 °C
6,Nc1nc2ccccc2n1-c1cccc(-c2ccc3[nH]ccc3c2)c1,120 to 123 °C
7,CC(C)[C@H](NC(=O)N(C)Cc1csc(NC(=O)OC(C)(C)C)n1)C(=O)N[C@@H](Cc1ccccc1)[C@@H](O)C[C@H](Cc1ccccc1)NC(=O)OCc1cccnc1,95 to 98 °C
8,CC(=O)N1CCSc2cccc(Cl)c2C1,79 to 81 °C
9,CCOC(=O)CCN1C(=O)NC(C)(CCc2cc(C(C)(C)C)c(O)c(C(C)(C)C)c2)C1=O (stereo not drawn),100 °C
10,Cc1noc(C)c1-c1ccc(C[C@H](NC(=O)c2c(Cl)cccc2Cl)C(=O)O)cc1,152 °C
11,O=C1CSCC(=O)NCCNCCN1,206 to 208 °C
12,CON=C(N)C(F)(F)C(O)(Cn1cncn1)c1ccc(F)cc1F (stereo not drawn),114 °C
13,Cn1c(C(F)(F)F)cc(=O)n(-c2cc(S)c(Cl)cc2F)c1=O,132 °C
14,CC(C)(C)OC(=O)N1CC2(C[C@H]1C(=O)OCOC(=O)C(C)(C)C)SCCS2,79.5 to 81 °C
15,CCOC(=O)c1c(C)ccc(Cc2c[nH]cn2)c1O,101 to 103 °C
16,"COc1ccnc(C(C)O)c1 (single isomer, unassigned; (+))",92 °C
17,COc1cc(Cl)c(C(=O)c2ccc([N+](=O)[O-])cc2)c(Cl)c1,147 to 150 °C
18,O=C(NCC(=O)N1c2ccccc2N(Cc2ccccc2)C(=O)[C@H]2CCC[C@H]21)c1ccc([N+](=O)[O-])cc1 (relative stereo),231 to 233 °C
19,O=C(O)C1Cc2cccc([N+](=O)[O-])c2C1 (stereo not drawn),140 °C
